From patent US8431593B2, “Heteroaryl amide derivatives” (H. Lundbeck A/S, priority 2006, dated 2013)
pIC50: −log10 of the molar value.

molecular target: T1, P2X7 receptor (Homo sapiens, UniProt Q99572); assay: P2X7 calcium mobilization assay, high throughput, antagonist activity (Example 4A); type: cell-based; details: 50% decrease in the fluorescence response of cells exposed to 80 μM of 2′(3′)-O-(4-benzoyl-benzoyl)adenosine 5′-triphosphate; Example 4A; read-out: IC50
T1 construct: host or cells: SH-SY5Y
T1 sequence (Q99572 1-595): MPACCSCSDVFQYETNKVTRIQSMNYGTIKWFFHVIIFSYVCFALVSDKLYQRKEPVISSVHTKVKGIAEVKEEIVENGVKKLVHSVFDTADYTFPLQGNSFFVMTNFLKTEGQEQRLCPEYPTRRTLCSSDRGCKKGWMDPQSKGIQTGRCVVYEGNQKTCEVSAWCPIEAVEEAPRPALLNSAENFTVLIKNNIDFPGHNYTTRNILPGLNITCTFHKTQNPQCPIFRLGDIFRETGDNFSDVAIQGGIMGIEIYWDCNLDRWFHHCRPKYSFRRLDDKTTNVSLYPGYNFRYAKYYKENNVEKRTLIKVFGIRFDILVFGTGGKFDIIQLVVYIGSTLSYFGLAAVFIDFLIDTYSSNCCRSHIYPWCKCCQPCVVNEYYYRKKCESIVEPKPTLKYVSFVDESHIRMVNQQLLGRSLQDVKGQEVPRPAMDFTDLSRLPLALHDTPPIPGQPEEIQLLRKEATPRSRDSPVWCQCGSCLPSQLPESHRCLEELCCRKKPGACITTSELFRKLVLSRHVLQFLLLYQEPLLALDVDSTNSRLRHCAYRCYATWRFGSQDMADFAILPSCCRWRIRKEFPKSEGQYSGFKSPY
In short: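 Antagonism was measured as calcium mobilization on FLIPR^TETRA after a 1 h room-temperature compound preincubation of dye-loaded cells. Baseline from no-agonist wells was subtracted from each well's maximum RFU.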

Row | Compound | pIC50
1 | CN(C)C1CCCN(C(=O)CCc2cn3c(C(=O)NCC45CC6CC(CC(C6)C4)C5)cccc3n2)C1 (stereo not drawn) [Compound 754, N-(adamantan-1-ylmethyl)-2-{3-[3-(dimethylamino)piperidin-1-yl]-3-oxopropyl} imidazo[1,2-a] pyridine-5-carboxamide] | > 5.70
2 | O=C(NCC12CC3CC(CC(C3)C1)C2)c1cccc2nc(C(Cc3ccccc3)C(=O)O)cn12 (stereo not drawn) [Compound 755, 2-{5-[(adamantan-1-ylmethyl)carbamoyl]imidazo[1,2-a]pyridin-2-yl}-3-phenylpropanoic acid] | > 5.70
3 | CCOC(=O)CCc1cn2c(C(=O)NCC34CC5CC(CC(C5)C3)C4)cccc2n1 [Compound 756, ethyl 3-{5-[(adamantan-1-ylmethyl)carbamoyl]imidazo[1,2-a]pyridin-2-yl}propanoate] | > 5.70
4 | CC(C)NCCSCc1cn2c(C(=O)NCC34CC5CC(CC(C5)C3)C4)cccc2n1 [Compound 757, N-(adamantan-1-ylmethyl)-2-({[2-(isopropylamino)ethyl]thio}methyl) imidazo[1,2-a] pyridine-5-carboxamide] | > 5.70
5 | COC(=O)C(Cc1cn2c(C(=O)NCC34CC5CC(CC(C5)C3)C4)cccc2n1)c1ccccn1 (stereo not drawn) [Compound 758, methyl 3-{5-[(adamantan-1-ylmethyl)carbamoyl]imidazo[1,2-a]pyridin-2-yl}-2-pyridin-2-ylpropanoate] | > 5.70
6 | CCOC(=O)C(Cc1cn2c(C(=O)NCC34CC5CC(CC(C5)C3)C4)cccc2n1)c1cccnc1 (stereo not drawn) [Compound 759, ethyl 3-{5-[(adamantan-1-ylmethyl)carbamoyl]imidazo[1,2-a]pyridin-2-yl}-2-pyridin-3-ylpropanoate] | > 5.70
7 | Cc1ccc(C(CNC(=O)c2cccc3nc(CN4CC[C@@H](N)C4)cn23)CC(C)C)cc1 (stereo partly drawn) [Compound 760, 2-[(3-aminopyrrolidin-1-yl)methyl]-N-[4-methyl-2-(4-methylphenyl)pentyl] imidazo[1,2-a] pyridine-5-carboxamide] | > 5.70
8 | CC(C#N)c1cn2c(C(=O)NCC34CC5CC(CC(C5)C3)C4)cccc2n1 (stereo not drawn) [Compound 761, N-(adamantan-1-ylmethyl)-2-(1-cyanoethyl)imidazo [1,2-a]pyridine-5-carboxamide] | > 5.70
9 | CC(C)CC(CNC(=O)c1cccc2nc(CN3CC[C@@H](N)C3)cn12)c1ccc(Cl)cc1 (stereo partly drawn) [Compound 762, 2-[(3-aminopyrrolidin-1-yl)methyl]-N-[2-(4-chlorophenyl)-4-methylpentyl] imidazo [1,2-a]pyridine-5-carboxamide] | > 5.70
10 | CC(C)CC(CNC(=O)c1cccc2nc(CN3CC[C@@H](NC(=O)OC(C)(C)C)C3)cn12)c1ccc(C(F)(F)F)cc1 (stereo partly drawn) [Compound 764, tert-butyl (1-{[5-({4-methyl-2-[4-(trifluoromethyl)phenyl]pentyl}carbamoyl)imidazo [1,2-a]pyridin-2-yl]methyl}pyrrolidin-3-yl)carbamate] | > 5.70
11 | Cc1ccc(C(CNC(=O)c2cccc3nc(CN4CC[C@@H](NC(=O)OC(C)(C)C)C4)cn23)CC(C)C)cc1 (stereo partly drawn) [Compound 765, tert-butyl {1-[(5-{[4-methyl-2-(4-methylphenyl)pentyl]carbamoyl}imidazo [1,2-a]pyridin-2-yl)methyl]pyrrolidin-3-yl}carbamate] | > 5.70
12 | CC(C)CC(CNC(=O)c1cccc2nc(CN3CC[C@@H](NC(=O)OC(C)(C)C)C3)cn12)c1ccc(Cl)cc1 (stereo partly drawn) [Compound 766, tert-butyl{1-[(5-{[2-(4-chlorophenyl)-4-methylpentyl]carbamoyl}imidazo[1,2-a]pyridin-2-yl)methyl]pyrrolidin-3-yl}carbamate] | > 5.70
13 | CN(C(=O)Cc1cn2c(C(=O)NCC34CC5CC(CC(C5)C3)C4)cccc2n1)C1CCOCC1 [Compound 767, N-(adamantan-1-ylmethyl)-2-{2-[methyl(tetrahydro-2H-pyran-4-yl)amino]-2-oxoethyl} imidazo[1,2-a] pyridine-5-carboxamide] | > 5.70
14 | N[C@@H]1CCN(Cc2cn3c(C(=O)NCC4(c5cccnc5)CCCCC4)cccc3n2)C1 [Compound 769, 2-[(3-aminopyrrolidin-1-yl)methyl]-N-[(1-pyridin-3-ylcyclohexyl)methyl] imidazo[1,2-a] pyridine-5-carboxamide] | > 5.70
15 | CC(c1cn2c(C(=O)NCC34CC5CC(CC(C5)C3)C4)cccc2n1)c1nnn[nH]1 (stereo not drawn) [Compound 770, N-(adamantan-1-ylmethyl)-2-[1-(1H-tetrazol-5-yl)ethyl]imidazo [1,2-a]pyridine-5-carboxamide] | > 5.70
16 | N[C@@H]1CCCN(C(=O)Cc2cn3c(NC(=O)CC45CC6CC(CC(C6)C4)C5)cccc3n2)C1 [Compound 771, 2-adamantan-1-yl-N-(2-{2-[(3R)-3-aminopiperidin-1-yl]-2-oxoethyl}imidazo[1,2-a]pyridin-5-yl)acetamide] | > 5.70
17 | Cc1cnc(N(C)Cc2cn3c(C(=O)NCC45CC6CC(CC(C6)C4)C5)cccc3n2)nc1N [Compound 772, N-(adamantan-1-ylmethyl)-2-{[(4-amino-5-methylpyrimidin-2-yl)(methyl)amino]methyl}imidazo [1,2-a]pyridine-5-carboxamide] | > 5.70
18 | CC(C)CC(CNC(=O)c1cccc2nc(CC(=O)N3CCCC(N(C)C)C3)cn12)c1ccccc1 (stereo not drawn) [Compound 789, 2-{2-[3-(dimethylamino)piperidin-1-yl]-2-oxoethyl}-N-(4-methyl-2-phenylpentyl) imidazo[1,2-a] pyridine-5-carboxamide] | > 5.70
19 | CN(C)C1CCCN(C(=O)Cc2cn3c(C(=O)NC[C@H]4CCC5CC4C5(C)C)cccc3n2)C1 (stereo partly drawn) [Compound 790, 2-{2-[3-(dimethylamino)piperidin-1-yl]-2-oxoethyl}-N-{[(2S)-6,6-dimethylbicyclo [3.1.1]hept-2-yl]methyl}imidazo [1,2-a]pyridine-5-carboxamide] | > 5.70

The next lines start with the values.

Row | pIC50 | Compound
20 | > 5.70 | CN(Cc1cn2c(C(=O)NCC34CC5CC(CC(C5)C3)C4)cccc2n1)c1ncccc1C(=O)O [Compound 774, 2-[({5-[(adamantan-1-ylmethyl)carbamoyl]imidazo[1,2-a]pyridin-2-yl}methyl) (methyl)amino] nicotinic acid]
21 | > 5.70 | N[C@@H]1CCN(C(=O)CCc2cn3c(C(=O)NCC45CC6CC(CC(C6)C4)C5)cccc3n2)C1 [Compound 778, N-(adamantan-1-ylmethyl)-2-{3-[(3R)-3-aminopyrrolidin-1-yl]-3-oxopropyl} imidazo[1,2-a] pyridine-5-carboxamide]
22 | > 5.70 | CNC1CCN(C(=O)CCc2cn3c(C(=O)NCC45CC6CC(CC(C6)C4)C5)cccc3n2)C1 (stereo not drawn) [Compound 779, N-(adamantan-1-ylmethyl)-2-{3-[3-(methylamino)pyrrolidin-1-yl]-3-oxopropyl} imidazo[1,2-a] pyridine-5-carboxamide]
23 | > 5.70 | NC1CCCN(C(=O)CCc2cn3c(C(=O)NCC45CC6CC(CC(C6)C4)C5)cccc3n2)C1 (stereo not drawn) [Compound 780, N-(adamantan-1-ylmethyl)-2-[3-(3-aminopiperidin-1-yl)-3-oxopropyl] imidazo[1,2-a] pyridine-5-carboxamide]
24 | > 5.70 | CC(Cc1nnn[nH]1)c1cn2c(C(=O)NCC34CC5CC(CC(C5)C3)C4)cccc2n1 (stereo not drawn) [Compound 781, N-(adamantan-1-ylmethyl)-2-[1-methyl-2-(1H-tetrazol-5-yl)ethyl] imidazo[1,2-a] pyridine-5-carboxamide]
25 | > 5.70 | N[C@@H]1CCN(Cc2cn3c(C(=O)NCC(CC4CC4)c4ccccc4)cccc3n2)C1 (stereo partly drawn) [Compound 782, 2-[(3-aminopyrrolidin-1-yl)methyl]-N-(3-cyclopropyl-2-phenylpropyl) imidazo [1,2-a]pyridine-5-carboxamide]
26 | > 5.70 | N[C@@H]1CCN(Cc2cn3c(C(=O)NCC(CC4CCC4)c4ccccc4)cccc3n2)C1 (stereo partly drawn) [Compound 783, 2-[(3-aminopyrrolidin-1-yl)methyl]-N-(3-cyclobutyl-2-phenylpropyl) imidazo [1,2-a]pyridine-5-carboxamide]
27 | > 5.70 | CC(C)(C)OC(=O)N[C@@H]1CCN(Cc2cn3c(C(=O)NCC(CC4CCCCC4)c4ccccc4)cccc3n2)C1 (stereo partly drawn) [Compound 785, tert-butyl [1-({5-[(3-cyclohexyl-2-phenylpropyl)carbamoyl]imidazo[1,2-a]pyridin-2-yl}methyl)pyrrolidin-3-yl]carbamate]
28 | > 5.70 | N[C@@H]1CCN(Cc2cn3c(C(=O)NCC(CC4CCCC4)c4ccccc4)cccc3n2)C1 (stereo partly drawn) [Compound 786, 2-[(3-aminopyrrolidin-1-yl)methyl]-N-(3-cyclopentyl-2-phenylpropyl) imidazo[1,2-a] pyridine-5-carboxamide]
29 | > 5.70 | N[C@@H]1CCN(Cc2cn3c(C(=O)NCC(CC4CCCCC4)c4ccccc4)cccc3n2)C1 (stereo partly drawn) [Compound 787, 2-[(3-aminopyrrolidin-1-yl)methyl]-N-(3-cyclohexyl-2-phenylpropyl) imidazo[1,2-a] pyridine-5-carboxamide]
30 | > 5.70 | CC(C)(C)OC(=O)Nc1cn2c(C(=O)NCC34CC5CC(CC(C5)C3)C4)cccc2n1 [Compound 788, tert-butyl {5-[(adamantan-1-ylmethyl)carbamoyl]imidazo[1,2-a]pyridin-2-yl}carbamate]
